Molecules are shown by their SMILES.

The series is described as follows: Human HepG2 cell viability assay in 384 well format. Conditions: HepG2 cells, read-out: Inhibition. Details: dose 125 nL, time 70.5 hour; cytotoxicity at 70.5 h: concentration not given beside the values. In kind it is toxicity, cell-based.

Take `N#Cc1cccnc1N1CCN(C(=O)c2cccs2)CC1`: the cytotoxicity at 70.5 h is -3%.
On to `CCCc1noc(CCCC(=O)N2CCCC(n3ccnc3C)C2)n1` (stereo not drawn), for which the cytotoxicity at 70.5 h is -2.44%.
In the case of `CCOc1ccc(CNC(=O)N2CCCC(CO)C2)cc1F` (stereo not drawn), the cytotoxicity at 70.5 h stood at 0.25%.
Then `Cc1nccn1C1CCCN(C(=O)CCc2nc(C(C)C)no2)C1` (stereo not drawn), with -11.2%; and `CCCc1noc(CCC(=O)N2CCCC(n3ccnc3C)C2)n1` (stereo not drawn), with -9.38%; and `CN(Cc1ccco1)C(=O)NCc1ccnc(SC(C)(C)C)c1`, with -8.67%.
On to `O=C(NC1CCCCNC1=O)c1cc2ccccc2[nH]c1=O` (stereo not drawn), for which the cytotoxicity at 70.5 h is -15.7%.
As to `O=C(NCc1ccc2c(c1)OCCO2)N1CCC(CO)CC1`, the cytotoxicity at 70.5 h is 4.7%.
Turning to `NC(=O)C1CCN(C(=O)NCc2ccc3c(c2)OCCO3)CC1`, the cytotoxicity at 70.5 h is -9.87%.
As for `CC(=O)NCC1CCN(C(=O)NCCc2ccc3c(c2)OCO3)CC1`, the cytotoxicity at 70.5 h is -17.3%.
In the case of `CC(=O)NCC1CCN(C(=O)NCc2ccc3c(c2)OCCO3)CC1`, the cytotoxicity at 70.5 h was -16.3%.
On to `CCC(C)(CNC(=O)Nc1nncs1)N1CCOCC1` (stereo not drawn), for which the cytotoxicity at 70.5 h is -13.4%.
As to `CCc1nc(C)c(C(=O)NCCNc2ncnc3sccc23)s1`, the cytotoxicity at 70.5 h is 4.06%.
As to `CCc1ncncc1C(=O)NCCNc1ncnc2sccc12`, the cytotoxicity at 70.5 h is -21.7%.
Then `N#Cc1ccc(CN2CCN(C(=O)CCn3cncn3)CC2)cc1`, with 6.05%.
As to `CCCc1noc(CCC(=O)N2CCN(C)CC2c2ccccc2)n1` (stereo not drawn), the cytotoxicity at 70.5 h is -15%.
As for `Cc1ccc(C(=O)NC2CCCCNC2=O)c(=O)[nH]1` (stereo not drawn), the figure is -6.58%.
Take `CN(c1ccc(F)cc1)S(=O)(=O)c1cc2c(c(C(=O)O)c1)OCCO2`: the cytotoxicity at 70.5 h was -10.5%.
Regarding `CN(c1c(F)cccc1F)S(=O)(=O)c1cc2c(c(C(=O)O)c1)OCCO2`, the cytotoxicity at 70.5 h worked out at 9.94%.
In the case of `CN(c1ccc(F)c(F)c1)S(=O)(=O)c1cc2c(c(C(=O)O)c1)OCCO2`, the cytotoxicity at 70.5 h is -7.51%.
`O=S(=O)(Cc1ccccc1)c1nnc(N2CCCC2)s1`: the cytotoxicity at 70.5 h was -2.76%.
`Cc1nc(C2CCCN(C(=O)C3=NN(C(C)C)C(=O)CC3)C2)no1` (stereo not drawn): the cytotoxicity at 70.5 h is -9.12%.
Take `O=S(=O)(Cc1ccccc1)c1nnc(N2CCOCC2)s1`: the cytotoxicity at 70.5 h was -9.13%.
On to `CN(CC1CCC1)C(=O)Nc1cccnc1-n1cncn1`, for which the cytotoxicity at 70.5 h was -12.4%.
As for `CC(C)Oc1ncc(C(=O)N2CCc3ccc(O)cc3C2)cc1Cl`, the cytotoxicity at 70.5 h worked out at 15.8%.
Take `O=C(Nc1cccnc1-n1cncn1)N(C1CCCC1)C1CC1`: the cytotoxicity at 70.5 h is -7.6%.
On to `Cc1nnc(C(C)Nc2cccc(COCCc3ccccc3)c2)o1` (stereo not drawn), for which the cytotoxicity at 70.5 h was -8.73%.
As for `CN1CCC(C(=O)N2CCCN(c3cccnn3)CC2)C1` (stereo not drawn), the figure is -14.6%; as for `CC(=O)NCCCSC1CCN(c2c(F)cccc2F)C1=O` (stereo not drawn), 22.9%; as for `CC(=O)NCCCSC1CCCN(c2ccccc2F)C1=O` (stereo not drawn), -6.35%.
With `Cc1ccnc(NCc2cccc(OCCN3CCOCC3)c2)n1`, the cytotoxicity at 70.5 h was found to be 32.7%.
Regarding `N#Cc1cn(CCCN2CCc3ccccc3C2)c(=O)[nH]c1=O`, the cytotoxicity at 70.5 h was -5.98%.
As for `CS(=O)(=O)Nc1cccc(CNC(=O)CCC(=O)c2cccs2)c1`, the figure is -3.24%.
`Cc1cccnc1NC(=O)C1CCCN(c2cccc(C(F)(F)F)n2)C1` (stereo not drawn): the cytotoxicity at 70.5 h is -0.942%.
Regarding `O=C(NC1CC1)C1CCN(c2cccc(C(F)(F)F)n2)CC1`, the cytotoxicity at 70.5 h is -1.37%.
As for `CC(=O)NC1CCCN(Cc2ccc(OCc3ccccn3)cc2)C1` (stereo not drawn), the cytotoxicity at 70.5 h is -6.3%.
In the case of `O=C(CN1CCS(=O)(=O)CC1)NC1CCCOc2ccccc21` (stereo not drawn), the cytotoxicity at 70.5 h was -3.91%.
Then `CC(C(=O)N1CCC(Cc2ccc(F)cc2)CC1)n1ccnc1` (stereo not drawn), with 20.4%; and `O=C1NCC(C(=O)N(Cc2cccc(Br)c2)C2CC2)N1` (stereo not drawn), with 26.3%.
As for `O=C(CCn1ccc2ccccc21)N1CCC(Nc2cccnn2)CC1`, the cytotoxicity at 70.5 h was -3.47%.
For `CCOCC(=O)N(Cc1ccccn1)Cc1ccccc1C`, the cytotoxicity at 70.5 h was -4.52%.
`CS(=O)(=O)Cc1ccc(Cl)cc1NCc1ccccc1F`: the cytotoxicity at 70.5 h stood at 27.6%.
As to `Cc1ccccc1CN(Cc1ccccn1)C(=O)CNS(C)(=O)=O`, the cytotoxicity at 70.5 h was found to be 25.2%.
On to `COC(=O)c1ccc(F)c(Cn2nc(C)cc2C)c1`, for which the cytotoxicity at 70.5 h amounted to 4.73%.
Then `O=c1[nH]nc(SCC2CCCCO2)n1C1CC1` (stereo not drawn), with 28.8%.
Regarding `CSCC(=O)N(Cc1ccccn1)Cc1ccccc1C`, the cytotoxicity at 70.5 h was -4.08%.
Regarding `Clc1cncc(NCc2cccc(OCCN3CCOCC3)c2)n1`, the cytotoxicity at 70.5 h is -8.21%.
Then `CC(CS(C)(=O)=O)N(C(=O)c1ccc(Cl)s1)C1CC1` (stereo not drawn), with -9.46%.
Regarding `CC(c1ccco1)N(C(=O)NCc1ccon1)C1CC1` (stereo not drawn), the cytotoxicity at 70.5 h was found to be 56.7%.
As for `Cc1noc(C)c1CNC(=O)N(C1CC1)C(C)c1ccco1` (stereo not drawn), the figure is -3.98%.
As for `Cc1cc(CNc2ccc(CC(=O)N(C)c3ccccc3)cc2)no1`, the figure is 0.0494%; as for `CC(C)c1noc(C(C)S(=O)(=O)Cc2nc(C3CC3)no2)n1` (stereo not drawn), -4.5%.
Regarding `O=C(NCCCN1CCOCC1)c1ccnc(OCc2ccccc2)c1`, the cytotoxicity at 70.5 h is -1.25%.
Turning to `Cn1ccc2c(C(=O)NCCCN3CCCC3)cccc21`, the cytotoxicity at 70.5 h was -3.04%.
In the case of `COc1cc(C2(C(=O)NCC(=O)NC3CC3)CC2)ccc1C`, the cytotoxicity at 70.5 h is -5.44%.
For `COc1cc(C2(C(=O)NC3CCC4(CC3)OCCO4)CC2)ccc1C`, the cytotoxicity at 70.5 h was -4.1%.
`OC(CNCCn1cccn1)COc1ccc(Br)cc1` (stereo not drawn): the cytotoxicity at 70.5 h is -5.72%.
`CC(C)n1cc(CN2CCCN(C(=O)c3cccnc3O)CC2)cn1`: the cytotoxicity at 70.5 h is -2.94%.
`CC(C)n1cc(CN2CCCN(C(=O)c3cccn3C)CC2)cn1`: the cytotoxicity at 70.5 h is -2.47%.
As to `CCc1ccc(C(=O)N2CCCC2c2c(C)nn(C)c2OC)o1` (stereo not drawn), the cytotoxicity at 70.5 h is -6.13%.
With `COc1c(C2CCCN2C(=O)c2cccn2C)c(C)nn1C` (stereo not drawn), the cytotoxicity at 70.5 h came to 13.8%.
Consider `COc1c(C2CCCN2C(=O)c2ccnn2C)c(C)nn1C` (stereo not drawn), for which the cytotoxicity at 70.5 h is -4.02%.
With `CCn1ccnc1CN1CCN(Cc2cccnc2)CC1C` (stereo not drawn), the cytotoxicity at 70.5 h stood at 7.86%.
With `CNc1cc(N2CCCC2CNCc2ccc(C)o2)ncn1` (stereo not drawn), the cytotoxicity at 70.5 h was found to be 5.47%.
Take `CCn1ccnc1CN1CCN(CCc2ccncc2)CC1C` (stereo not drawn): the cytotoxicity at 70.5 h came out at 7.35%.
Take `O=C(C1CC1)N1CCCC1c1nnc2n1CCCCC2` (stereo not drawn): the cytotoxicity at 70.5 h was 0.772%.
Regarding `NC(=O)c1ccc(CN2CCC(N3CCCC3)CC2)cc1`, the cytotoxicity at 70.5 h was -2.01%.
In the case of `NC(=O)c1cccc(CN2CCOC(Cn3cccn3)C2)c1` (stereo not drawn), the cytotoxicity at 70.5 h came out at 8.52%.
For the compound `CS(=O)(=O)CCn1ccc(NC(=O)CCc2cccc(F)c2)n1`, the cytotoxicity at 70.5 h is -3.41%.
Consider `CNc1cc(N2CCCC2CNCc2cccnc2C)ncn1` (stereo not drawn), for which the cytotoxicity at 70.5 h was determined as 4.98%.
Turning to `Cc1cc(F)ccc1CCNC(=O)NCC(C)N1CCOCC1` (stereo not drawn), the cytotoxicity at 70.5 h turned out to be 3.68%.
As for `CC(C)C(NC(=O)NCC1CC1)c1nnc2n1CCC2` (stereo not drawn), the cytotoxicity at 70.5 h stood at 3.11%.
Take `CCc1cc(CNC(=O)N2CCN(c3nc(C)c(C)s3)CC2)on1`: the cytotoxicity at 70.5 h is -3.25%.
Then `CC(C)COCCCNC(=O)c1cccnc1N1CCOCC1`, with 4.2%; and `Cc1nc(C)n(C2CCCN(C(=O)CCn3cncn3)C2)n1` (stereo not drawn), with -0.0645%.
Then `Cc1nc(C)n(C2CCCN(C(=O)CCc3cscn3)C2)n1` (stereo not drawn), with 37%.
Then `Cc1cc(C)n(CC2CN(Cc3ccc4c(c3)OCCO4)CCO2)n1` (stereo not drawn), with -3.91%.
As to `CCC(CNC1CCN(C(=O)N(C)C)CC1)Oc1ccccc1C` (stereo not drawn), the cytotoxicity at 70.5 h amounted to 27.1%.
Then `CCC(CNC1CCN(C(C)=O)CC1)Oc1ccccc1Cl` (stereo not drawn), with 5.02%; and `Cc1cnn(CCNCC(=O)NC2(C#N)CCCC2)c1`, with -0.423%; and `Cc1sc2nc(C(F)(F)F)nc(N3CCN(C)CC3)c2c1C`, with -4.17%.
As to `CCCc1nc(C)c(C(=O)NC2CCN(c3ncccn3)CC2)s1`, the cytotoxicity at 70.5 h is -9.16%.
As to `N#CC1(NC(=O)COC(=O)Cn2cccn2)CCCC1`, the cytotoxicity at 70.5 h was -7.86%.
In the case of `OC1CCN(c2ccccc2NCc2nc(-c3cccs3)no2)CC1`, the cytotoxicity at 70.5 h was -10.7%.
`OC1CCN(c2ccccc2NCc2nc(-c3ccoc3)no2)CC1`: the cytotoxicity at 70.5 h was 36.2%.
Then `CC(NCc1ccncc1)c1cc2c(cc1Br)OCCO2` (stereo not drawn), with -4.83%; and `CC(Cn1cccn1)NCC(=O)NC1(C#N)CCCCC1` (stereo not drawn), with 21.3%; and `CCOC(C)C(=O)N(C)C1CCN(c2ccc(OC)cc2)CC1` (stereo not drawn), with -4.16%.
Then `O=C(NS(=O)(=O)Cc1ccc(F)cc1)C1CCOc2ccccc21` (stereo not drawn), with -9.19%.
Consider `Cc1ncc2c(n1)CN(Cc1nc3c(F)cccc3[nH]1)CC2`, for which the cytotoxicity at 70.5 h is -2.01%.
With `Fc1cccc2[nH]c(CN3CCc4cncnc4C3)nc12`, the cytotoxicity at 70.5 h is -7.7%.
Regarding `CSC(C)C(=O)N(C)C1CCN(c2ccc(Cl)cc2)CC1` (stereo not drawn), the cytotoxicity at 70.5 h stood at 2.45%.
As for `COc1ccc(N2CCC(N(C)C(=O)C(C)SC)CC2)cc1` (stereo not drawn), the cytotoxicity at 70.5 h is -6.26%.
As for `CCC(CNC(=O)NC1CCN(C)CC1)Oc1ccccc1Cl` (stereo not drawn), the figure is 30.5%; as for `O=C(NCc1csc2ccccc12)NCC1(O)CCSC1` (stereo not drawn), -2.26%.
Regarding `FC(F)Sc1ccc(NCc2nnc(C3CC3)o2)cc1`, the cytotoxicity at 70.5 h is -4.17%.
On to `COc1ccnc(NC(=O)c2cscn2)c1`, for which the cytotoxicity at 70.5 h is -10.4%.
With `CN(Cc1ccc2c(c1)OCO2)Cc1nc(Cc2ccccc2)no1`, the cytotoxicity at 70.5 h was -5.91%.
As to `CCOC(C)c1noc(CN2CCN(c3ccncc3)CC2)n1` (stereo not drawn), the cytotoxicity at 70.5 h is -6.31%.
With `CCOC(C)c1noc(CN2CCCNCC2)n1` (stereo not drawn), the cytotoxicity at 70.5 h was -5.58%.
For the compound `CCOC(C)c1noc(CN2CCN(Cc3cccnc3)CC2)n1` (stereo not drawn), the cytotoxicity at 70.5 h worked out at 34.3%.
In the case of `O=C(CN1CCC[C@H]1C(=O)O)NCCOc1cccc(Cl)c1`, the cytotoxicity at 70.5 h is -1.34%.
Turning to `CCOC(=O)c1ccccc1NC(=O)CN(C)Cc1ccccc1Cl`, the cytotoxicity at 70.5 h came to 3.31%.

These data come from ChEMBL document CHEMBL3507680, “University of Dundee, Gates Library screen for HepG2 cell viability”.
